Measured values from paper PMC11579512, “Deoxybouvardin-glucoside induces apoptosis in non-small cell lung cancer cells by targeting EGFR/MET and AKT signaling pathway” (EXCLI Journal, 2024).
Like-named read-outs stand apart in the source and are kept apart here.

Key:
[1] = target: T1, EGFR (Homo sapiens, UniProt P00533); assay: In vitro ADP-Glo kinase assay, EGFR; assay type: biochemical
T1 construct: purchased Promega
Experimental: Subsequently, each well was added with ADP-Glo reagent and incubated for another 40 min. After completion of the kinase reaction, each well was added with kinase activity detection reagent and then incubated for 30 min. Liquid was dispensed with I.DOT (Dispendix, Stuttgart, Germany). Luminescence was measured on a Centro LB 960 microplate luminometer (Berthold Technologies).

[2] = tested on: p-EGFR; assay: Immunoblot p-EGFR with NAC pretreatment, HCC827 and HCC827GR cells; assay type: cell-based, human; conditions: for p-EGFR protein Ratio: control = 1.00
Experimental: (§1) HaCaT cells were grown in DMEM, whereas HCC827 and HCC827GR cells were grown in RPMI 1640. All culture media were supplemented with FBS (10 %) and P/S (1 %), and the cells were grown at 37 °C in 5 % CO2.
(§2) Cells were lysed in RIPA buffer, and protein concentration was determined using a Bio-Rad DC Protein Assay kit (Bio-Rad, Hercules, CA, USA). Protein samples from the cell lysates were resolved by sodium dodecyl sulfate-polyacrylamide gel electrophoresis and then transferred onto polyvinylidene fluoride membranes. The membranes were blocked with 3 % or 5 % skim milk and then incubated at 4 °C overnight with the indicated primary antibodies, followed by the corresponding horseradish peroxidase-conjugated secondary antibodies at RT for 2 h. Protein bands were visualized using western blotting luminol reagent solution and ImageQuant LAS 500 (GE Healthcare, Uppsala, Sweden). The density of the bands was quantified using ImageJ software (NIH, Bethesda, MD, USA).

[3] = tested on: PARP; assay: Immunoblot PARP with NAC pretreatment, HCC827 and HCC827GR cells; assay type: cell-based, human; conditions: for PARP protein Ratio: control = 1.00
Experimental: as §1, §2

[4] = tested on: HCC827 cells; assay: Soft agar anchorage-independent growth, HCC827; assay type: cell-based, human; conditions: 2 weeks
Experimental: The anchorage-independent cell growth assay was performed in 6-well plates with dual agar layers containing 0.6 % agar (lower layer) and 0.3 % agar (upper layer) supplemented with BME, 2 mM L-glutamine, 5 μg/ml gentamicin, and 10 % FBS. After 2 weeks of incubation, the number of colonies was assessed using a microscope (Leica, Wetzlar, Germany), and the mean colony area was analyzed using i-Solution ^TM software (Vancouver, BC, Canada).

[5] = tested on: p-AKT (S473); assay: Western blot p-AKT (S473) in HCC827 and HCC827GR cells; assay type: cell-based, human; conditions: DBG 3, 6, 12 nM, 48 h
Experimental: as §1, §2

[6] = tested on: HCC827 cells
Experimental: (§3) All culture media were supplemented with FBS (10 %) and P/S (1 %), and the cells were grown at 37 °C in 5 % CO2.
(§4) The cells were treated with MTT and incubated for 2 h. The supernatants were removed, and the remaining formazan crystals were dissolved in DMSO before absorbance measurement at 570 nm using a Multiscan GO spectrophotometer (Thermo Fisher Scientific, Vantaa, Finland).

[7] = tested on: HCC827GR cells
Experimental: as §3, §4

[8] = tested on: HaCaT cells
Experimental: as §3, §4

[9] = tested on: p27; assay: Immunoblot p27 in HCC827 and HCC827GR cells; assay type: cell-based, human
Experimental: as §1, §2

T1 sequence (P00533 25-1210): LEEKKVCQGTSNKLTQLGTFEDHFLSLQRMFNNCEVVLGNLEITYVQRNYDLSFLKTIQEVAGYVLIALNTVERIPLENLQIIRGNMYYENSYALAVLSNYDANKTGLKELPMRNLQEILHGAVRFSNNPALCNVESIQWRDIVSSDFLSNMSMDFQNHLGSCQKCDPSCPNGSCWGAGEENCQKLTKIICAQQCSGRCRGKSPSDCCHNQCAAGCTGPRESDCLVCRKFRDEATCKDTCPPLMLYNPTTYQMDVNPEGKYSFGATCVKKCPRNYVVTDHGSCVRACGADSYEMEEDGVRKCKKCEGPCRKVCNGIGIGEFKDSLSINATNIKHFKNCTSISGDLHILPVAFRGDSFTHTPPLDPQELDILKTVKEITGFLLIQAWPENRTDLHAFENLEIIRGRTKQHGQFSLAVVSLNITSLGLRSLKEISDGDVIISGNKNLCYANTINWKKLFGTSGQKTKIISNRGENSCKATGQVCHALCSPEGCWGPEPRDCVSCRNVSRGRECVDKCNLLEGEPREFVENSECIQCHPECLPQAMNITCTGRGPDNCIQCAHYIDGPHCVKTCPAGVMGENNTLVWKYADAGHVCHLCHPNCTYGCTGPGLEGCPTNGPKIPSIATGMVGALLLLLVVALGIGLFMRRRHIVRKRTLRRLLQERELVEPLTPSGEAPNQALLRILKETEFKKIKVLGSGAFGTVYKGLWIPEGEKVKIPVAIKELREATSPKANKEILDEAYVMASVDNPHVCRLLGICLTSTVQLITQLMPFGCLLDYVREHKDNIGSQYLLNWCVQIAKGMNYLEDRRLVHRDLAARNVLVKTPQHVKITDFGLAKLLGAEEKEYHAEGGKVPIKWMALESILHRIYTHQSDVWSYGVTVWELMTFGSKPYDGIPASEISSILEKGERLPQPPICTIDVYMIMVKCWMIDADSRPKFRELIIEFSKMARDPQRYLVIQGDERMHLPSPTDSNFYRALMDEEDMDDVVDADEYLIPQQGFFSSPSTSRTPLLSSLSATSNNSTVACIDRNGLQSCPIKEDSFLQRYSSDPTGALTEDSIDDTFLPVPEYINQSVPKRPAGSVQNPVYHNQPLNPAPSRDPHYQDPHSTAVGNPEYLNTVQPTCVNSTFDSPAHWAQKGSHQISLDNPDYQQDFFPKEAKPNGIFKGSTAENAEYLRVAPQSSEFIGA

Compound: COc1ccc(C[C@H]2C(=O)N[C@@H](C)C(=O)N(C)[C@H]3Cc4ccc(cc4)Oc4cc(ccc4O[C@@H]4O[C@H](CO)[C@@H](O)[C@H](O)[C@H]4O)C[C@@H](C(=O)N[C@H](C)C(=O)N[C@@H](C)C(=O)N2C)N(C)C3=O)cc1 [DBG, deoxybouvardin glucoside]
- IC50 ([1]; ADP-Glo, EGFR 4 ng, RT, 60 min, luminescence, n=3): 7.23 nM
- kinase activity, in words ([1]; DBG 3, 6, 12 nM): significantly inhibited
- p-EGFR protein/actin ([2]; HCC827, DBG 12 nM, control 0.90): 0.25
- p-EGFR protein Ratio ([2]; HCC827, DBG 12 nM): 0.27
- p-EGFR protein/actin ([2]; HCC827, NAC 4 mM + DBG 12 nM, control 0.90): 0.27
- p-EGFR protein Ratio ([2]; HCC827, NAC 4 mM + DBG 12 nM): 0.30
- p-EGFR protein/actin ([2]; HCC827GR, DBG 12 nM, control 0.93): 0.40
- p-EGFR protein Ratio ([2]; HCC827GR, DBG 12 nM): 0.43
- p-EGFR protein/actin ([2]; HCC827GR, NAC 4 mM + DBG 12 nM, control 0.93): 0.30
- p-EGFR protein Ratio ([2]; HCC827GR, NAC 4 mM + DBG 12 nM): 0.32
- DBG-decreased phosphorylation of EGFR with NAC ([2]; NAC 4 mM pretreatment, DBG 48 h): did not change
- PARP protein/actin ([3]; HCC827, DBG 12 nM, control 0.96): 0.09
- PARP protein Ratio ([3]; HCC827, DBG 12 nM): 0.09
- PARP protein/actin ([3]; HCC827, NAC 4 mM + DBG 12 nM, control 0.96): 1.09
- PARP protein Ratio ([3]; HCC827, NAC 4 mM + DBG 12 nM): 1.14
- PARP protein/actin ([3]; HCC827GR, DBG 12 nM, control 0.99): 0.21
- PARP protein Ratio ([3]; HCC827GR, DBG 12 nM): 0.22
- PARP protein/actin ([3]; HCC827GR, NAC 4 mM + DBG 12 nM, control 0.99): 0.81
- PARP protein Ratio ([3]; HCC827GR, NAC 4 mM + DBG 12 nM): 0.82
- colony number, Control % ([4]; DBG 3 nM): 58.65%
- colony size, Control % ([4]; DBG 3 nM): 78.77%
- colony number, Control % ([4]; DBG 6 nM): 34.62%
- colony size, Control % ([4]; DBG 6 nM): 57.75%
- colony number, Control % ([4]; DBG 12 nM): 0.00%
- colony size, Control % ([4]; DBG 12 nM): 0.00%
- phosphorylation level of AKT [5]: decreased
- cell viability ([6]; 24 h, DBG 3 nM, replicate 1): 86.91%
- cell viability ([6]; 24 h, DBG 3 nM, replicate 2): 83.02%
- cell viability ([6]; 24 h, DBG 3 nM, replicate 3): 81.91%
- cell viability ([6]; 24 h, DBG 6 nM, replicate 1): 73.81%
- cell viability ([6]; 24 h, DBG 6 nM, replicate 2): 74.94%
- cell viability ([6]; 24 h, DBG 6 nM, replicate 3): 75.18%
- cell viability ([6]; 24 h, DBG 12 nM, replicate 1): 63.61%
- cell viability ([6]; 24 h, DBG 12 nM, replicate 2): 64.36%
- cell viability ([6]; 24 h, DBG 12 nM, replicate 3): 66.17%
- IC50 ([6]; 48 h): 8.6 nM
- cell viability ([6]; 48 h, DBG 3 nM, replicate 1): 82.82%
- cell viability ([6]; 48 h, DBG 3 nM, replicate 2): 81.25%
- cell viability ([6]; 48 h, DBG 3 nM, replicate 3): 79.60%
- cell viability ([6]; 48 h, DBG 6 nM, replicate 1): 60.78%
- cell viability ([6]; 48 h, DBG 6 nM, replicate 2): 58.53%
- cell viability ([6]; 48 h, DBG 6 nM, replicate 3): 60.97%
- cell viability ([6]; 48 h, DBG 12 nM, replicate 1): 37.02%
- cell viability ([6]; 48 h, DBG 12 nM, replicate 2): 36.88%
- cell viability ([6]; 48 h, DBG 12 nM, replicate 3): 36.42%
- viability, in words ([6]; DBG 3, 6, 12 nM): suppressed the viability
- cell viability ([7]; 24 h, DBG 3 nM, replicate 1): 88.10%
- cell viability ([7]; 24 h, DBG 3 nM, replicate 2): 92.63%
- cell viability ([7]; 24 h, DBG 3 nM, replicate 3): 91.95%
- cell viability ([7]; 24 h, DBG 6 nM, replicate 1): 81.14%
- cell viability ([7]; 24 h, DBG 6 nM, replicate 2): 86.21%
- cell viability ([7]; 24 h, DBG 6 nM, replicate 3): 84.35%
- cell viability ([7]; 24 h, DBG 12 nM, replicate 1): 77.73%
- cell viability ([7]; 24 h, DBG 12 nM, replicate 2): 74.83%
- cell viability ([7]; 24 h, DBG 12 nM, replicate 3): 73.57%
- IC50 ([7]; 48 h): 8.65 nM
- cell viability ([7]; 48 h, DBG 3 nM, replicate 1): 81.02%
- cell viability ([7]; 48 h, DBG 3 nM, replicate 2): 78.86%
- cell viability ([7]; 48 h, DBG 3 nM, replicate 3): 79.86%
- cell viability ([7]; 48 h, DBG 6 nM, replicate 1): 59.60%
- cell viability ([7]; 48 h, DBG 6 nM, replicate 2): 58.31%
- cell viability ([7]; 48 h, DBG 6 nM, replicate 3): 59.16%
- cell viability ([7]; 48 h, DBG 12 nM, replicate 1): 38.12%
- cell viability ([7]; 48 h, DBG 12 nM, replicate 2): 38.18%
- cell viability ([7]; 48 h, DBG 12 nM, replicate 3): 39.51%
- viability, in words ([7]; DBG 3, 6, 12 nM): suppressed the viability
- cell viability ([8]; 24 h, DBG 3 nM, replicate 1): 103.33%
- cell viability ([8]; 24 h, DBG 3 nM, replicate 2): 102.45%
- cell viability ([8]; 24 h, DBG 3 nM, replicate 3): 101.31%
- cell viability ([8]; 24 h, DBG 6 nM, replicate 1): 101.02%
- cell viability ([8]; 24 h, DBG 6 nM, replicate 2): 102.90%
- cell viability ([8]; 24 h, DBG 6 nM, replicate 3): 101.77%
- cell viability ([8]; 24 h, DBG 12 nM, replicate 1): 101.52%
- cell viability ([8]; 24 h, DBG 12 nM, replicate 2): 102.50%
- cell viability ([8]; 24 h, DBG 12 nM, replicate 3): 100.11%
- cell viability ([8]; 48 h, DBG 3 nM, replicate 1): 101.48%
- cell viability ([8]; 48 h, DBG 3 nM, replicate 2): 104.66%
- cell viability ([8]; 48 h, DBG 3 nM, replicate 3): 100.09%
- cell viability ([8]; 48 h, DBG 6 nM, replicate 1): 97.99%
- cell viability ([8]; 48 h, DBG 6 nM, replicate 2): 98.42%
- cell viability ([8]; 48 h, DBG 6 nM, replicate 3): 101.29%
- cell viability ([8]; 48 h, DBG 12 nM, replicate 1): 98.16%
- cell viability ([8]; 48 h, DBG 12 nM, replicate 2): 94.89%
- cell viability ([8]; 48 h, DBG 12 nM, replicate 3): 94.68%
- viability, in words ([8]; DBG 3, 6, 12 nM): did not affect
- level of p27 ([9]; DBG, 48 h): increasing p27
- p27 protein/actin ([9]; HCC827, DBG 3 nM, DBG 0 nM 0.14): 0.14
- p27 protein ratio ([9]; HCC827, DBG 3 nM, relative to DBG 12 nM = 1.00, DBG 0 nM 0.34): 0.33
- p27 protein/actin ([9]; HCC827, DBG 6 nM, DBG 0 nM 0.14): 0.40
- p27 protein ratio ([9]; HCC827, DBG 6 nM, relative to DBG 12 nM = 1.00, DBG 0 nM 0.34): 0.96
- p27 protein ratio ([9]; HCC827, DBG 12 nM (set to 1.00), DBG 0 nM 0.34): 1.00
- p27 protein/actin ([9]; HCC827, DBG 12 nM, DBG 0 nM 0.14): 0.42
- p27 protein/actin ([9]; HCC827GR, DBG 3 nM, DBG 0 nM 0.06): 0.09
- p27 protein ratio ([9]; HCC827GR, DBG 3 nM, relative to DBG 12 nM = 1.00, DBG 0 nM 0.08): 0.11
- p27 protein/actin ([9]; HCC827GR, DBG 6 nM, DBG 0 nM 0.06): 0.69
- p27 protein ratio ([9]; HCC827GR, DBG 6 nM, relative to DBG 12 nM = 1.00, DBG 0 nM 0.08): 0.90
- p27 protein ratio ([9]; HCC827GR, DBG 12 nM (set to 1.00), DBG 0 nM 0.08): 1.00
- p27 protein/actin ([9]; HCC827GR, DBG 12 nM, DBG 0 nM 0.06): 0.77
